Reference: patent US4427661A, “Fluorinated cyclic hexapeptide somatostatin analogs” (Merck & Co., Inc., priority 1982, dated 1984)

Assays:
[1] = system: pentagastrin evoked gastric secretion; test: Inhibition of pentagastrin evoked gastric secretion in the chronic fistula dog; assay type: in vivo; details: Dose 0.8 μg/ml./min., infusion 0-60 min, relative to placebo trial
Description: Compounds were tested for their ability to inhibit pentagastrin evoked gastric secretion in the chronic fistula dog. Female beagle dogs with a chronic gastric fistula were given pentagastrin (2.5 μg./kg./hour, i.v. from -60 to 120 min.) and gastric outputs were collected via the fistula cannula. Samples were analyzed at 30 minute intervals for volume (ml.) and titratable acid (mEq/L) (Titration to pH 7 with 0.01 N NaOH); total acid output (mEq) was calculated as the production of output volume and acid concentration. Test compounds were infused at a constant rate from 0 to 60 minutes. Data have been expressed as percent change of total acid output relative to a placebo trial in the same animals.

insulin = test: Insulin inhibition in vivo: portal vein insulin in anesthetized rats; design: species or system rat; details: multiples or fractions of the effect of somatostatin (=1), via external jugular vein, portal vein blood after 5 minutes
Description: Analogs of somatostatin were compared to somatostatin in their ability to decrease the levels of portal vein glucagon and insulin in anesthetized rats. Male Sprague-Dawley rats (Charles River CD) weighing 160-200 g were anethetized with urethane (150 mg/100 g of body weight; Aldrich). Saline or peptides were administered via the external jugular vein. After 5 minutes, the portal vein was exposed, and blood was collected via syringe containing 3 mg of EDTA and placed in chilled tubes containing 100 μl of Trasylol (FBA Pharmaceuticals) for subsequent hormone analysis. Plasma levels of glucagon were determined by the method of Faloona and Unger, Methods of Hormone Radioimmunoassay, Jaffe and Behrman (Eds), Academic Press, New York, Vol. II, pp. 257-527 (1976), utilizing glucagon antisera 30K obtained from R. Unger (Dallas, Tx). Plasma levels of insulin were determined by a modification of the procedure of Herbert et al., J. Clin. Endocrinol. Metab., 25, 1375-1384 (1965).

growth hormone release = test: Growth Hormone--in vitro: growth hormone release inhibition in cultured rat pituitary cells; assay type: cell-based; details: multiples or fractions of the effect of somatostatin (=1), 4 hours incubation
Description: Rat pituitaries were isolated according to the procedures of Vale and Grant "In vitro Pituitary Hormone Secretion Assay for Hypophysioprivic Substances" in Methods in Enzymology. Vol.XXXVII,eds. O'Malley, B. W. and Hardman, J. G. (Academic Press, Inc., New York) pp. 5-93 (1975).
After 4 days in culture, the cells were washed and incubated for 4 hours in Dulbecco modified Eagle's medium in the presence or absence of graded doses of each analog or somatostatin. The medium was then collected for subsequent growth hormone determination by a double antibody radioimmunoassay for rat growth hormone.

## C[C@H](N)C(=O)NCC(=O)N[C@H]1CSSC[C@@H](C(=O)O)NC(=O)[C@H](CO)NC(=O)[C@H]([C@@H](C)O)NC(=O)[C@H](Cc2ccccc2)NC(=O)[C@H]([C@@H](C)O)NC(=O)[C@H](CCCCN)NC(=O)[C@H](Cc2c[nH]c3ccccc23)NC(=O)[C@H](Cc2ccccc2)NC(=O)[C@H](Cc2ccccc2)NC(=O)[C@H](CC(N)=O)NC(=O)[C@H](CCCCN)NC1=O [Somatostatin]
[1]; interval 0-30 min
  Gastric Secretion % Inhibition Acid Concentration 0-30: 16%
  Gastric Secretion % Inhibition Vol. 0-30: 85%
[1]; interval 30-60 min
  Gastric Secretion % Inhibition Acid Concentration 30-60: 77%
  Gastric Secretion % Inhibition Vol. 30-60: 97%
[1]; interval 60-90 min
  Gastric Secretion % Inhibition Acid Concentration 60-90: 61%
  Gastric Secretion % Inhibition Vol. 60-90: 81%
[1]; interval 90-120 min
  Gastric Secretion % Inhibition Acid Concentration 90-120: 14%
  Gastric Secretion % Inhibition Vol. 90-120: 37%
insulin
  Insulin Inhibition In Vivo: 1
Growth hormone release
  Growth Hormone Release Inhibition In Vitro: 1
